# Data: ChEMBL document CHEMBL5154747, “Discovery of new carbonic anhydrase IX inhibitors as anticancer agents by toning the hydrophobic and hydrophilic rims of the active site to encounter the dual-tail approach” (Eur J Med Chem, 2022)
# Tests used:
# [1] = system: HOP-62; assay: Anticancer activity against human HOP-62 cells assessed as cell growth inhibition incubated for 48 hrs by SRB assay; type: functional
# [2] = system: UACC-62; assay: Anticancer activity against human UACC-62 cells assessed as cell growth inhibition incubated for 48 hrs by SRB assay; type: functional
# [3] = system: ACHN; assay: Anticancer activity against human ACHN cells assessed as cell growth inhibition incubated for 48 hrs by SRB assay; type: functional
# [4] = system: MDA-MB-231; assay: Anticancer activity against human MDA-MB-231 cells assessed as cell growth inhibition incubated for 48 hrs by SRB assay; type: functional
# [5] = system: NCI-H460; assay: Anticancer activity against human NCI-H460 cells assessed as cell growth inhibition incubated for 48 hrs by SRB assay; type: functional
# [6] = system: DU-145; assay: Anticancer activity against human DU-145 cells assessed as cell growth inhibition incubated for 48 hrs by SRB assay; type: functional
# [7] = system: OVCAR-5; assay: Anticancer activity against human OVCAR-5 cells assessed as cell growth inhibition incubated for 48 hrs by SRB assay; type: functional; conditions: read-out: LC50 (the source's name)
# [8] = system: SN12C; assay: Anticancer activity against human SN12C cells assessed as cell growth inhibition incubated for 48 hrs by SRB assay; type: functional
# [9] = system: M14; assay: Anticancer activity against human M14 cells assessed as cell growth inhibition incubated for 48 hrs by SRB assay; type: functional
# [10] = system: NCI-H322M; assay: Anticancer activity against human NCI-H322M cells assessed as cell growth inhibition incubated for 48 hrs by SRB assay; type: functional; conditions: read-out: LC50 (the source's name)
# [11] = system: CAKI-1; assay: Anticancer activity against human CAKI-1 cells assessed as cell growth inhibition incubated for 48 hrs by SRB assay; type: functional
# [12] = system: SK-MEL-2; assay: Anticancer activity against human SK-MEL-2 cells assessed as cell growth inhibition incubated for 48 hrs by SRB assay; type: functional; conditions: read-out: LC50 (the source's name)
# [13] = system: MDA-MB-435; assay: Anticancer activity against human MDA-MB-435 cells assessed as cell growth inhibition incubated for 48 hrs by SRB assay; type: functional
# [14] = system: HCT-15; assay: Anticancer activity against human HCT-15 cells assessed as cell growth inhibition incubated for 48 hrs by SRB assay; type: functional
# [15] = system: U-251; assay: Anticancer activity against human U-251 cells assessed as cell growth inhibition incubated for 48 hrs by SRB assay; type: functional
# [16] = system: NCI-H23; assay: Anticancer activity against human NCI-H23 cells assessed as cell growth inhibition incubated for 48 hrs by SRB assay; type: functional
# [17] = system: COLO 205; assay: Anticancer activity against human COLO 205 cells assessed as cell growth inhibition incubated for 48 hrs by SRB assay; type: functional
# [18] = system: SNB-19; assay: Anticancer activity against human SNB-19 cells assessed as cell growth inhibition incubated for 48 hrs by SRB assay; type: functional; conditions: read-out: LC50 (the source's name)
# [19] = system: SK-MEL-5; assay: Cytotoxicity against human SK-MEL-5 cells assessed as inhibition of cell viability incubated for 72 hrs under hypoxia condition by MTT assay; type: functional, cell-based; conditions: SK-MEL-5, 72 h
# [20] = system: HL-60(TB); assay: Anticancer activity against human HL-60(TB) cells assessed as cell growth inhibition incubated for 48 hrs by SRB assay; type: functional
# [21] = system: NCI/ADR-RES; assay: Anticancer activity against human NCI/ADR-RES cells assessed as cell growth inhibition incubated for 48 hrs by SRB assay; type: functional
# [22] = system: HCC 2998; assay: Anticancer activity against human HCC 2998 cells assessed as cell growth inhibition incubated for 48 hrs by SRB assay; type: functional
# [23] = system: HCT-116; assay: Anticancer activity against human HCT-116 cells assessed as cell growth inhibition incubated for 48 hrs by SRB assay; type: functional
# [24] = system: RPMI-8226; assay: Anticancer activity against human RPMI-8226 cells assessed as cell growth inhibition incubated for 48 hrs by SRB assay; type: functional
# [25] = system: RXF 393; assay: Cytotoxicity against human RXF 393 cells assessed as inhibition of cell viability incubated for 72 hrs under hypoxia condition by MTT assay; type: functional, cell-based; conditions: RXF 393, 72 h
# [26] = read-out: LC50 (the source's name)
structure (smiles),measurement,setting,value
O=c1[nH]cc(F)c(=O)[nH]1 [FLUOROURACIL],GI50,[1],390 nM
same,CC50,[1]; [26],> 100000 nM
same,GI50,[2],520 nM
same,GI50,[3],270 nM
same,CC50,[3]; [26],> 100000 nM
same,GI50,[4],6600 nM
same,GI50,[5],50 nM
same,CC50,[5]; [26],> 100000 nM
same,GI50,[6],360 nM
same,CC50,[7],> 100000 nM
same,GI50,[8],490 nM
same,GI50,[9],980 nM
same,CC50,[9]; [26],> 100000 nM
same,CC50,[10],> 100000 nM
same,GI50,[11],70 nM
same,CC50,[11]; [26],> 100000 nM
same,CC50,[12],> 100000 nM
same,GI50,[13],70 nM
same,GI50,[14],110 nM
same,CC50,[14]; [26],> 100000 nM
same,GI50,[15],920 nM
same,CC50,[15]; [26],> 100000 nM
same,GI50,[16],330 nM
same,CC50,[16]; [26],> 100000 nM
same,GI50,[17],150 nM
same,CC50,[17]; [26],> 100000 nM
same,CC50,[18],> 100000 nM
same,IC50,[19],15300 nM
same,GI50,[20],2300 nM
same,CC50,[20]; [26],> 100000 nM
same,GI50,[21],310 nM
same,CC50,[21]; [26],> 100000 nM
same,GI50,[22],50 nM
same,CC50,[22]; [26],> 100000 nM
same,GI50,[23],220 nM
same,GI50,[24],40 nM
same,IC50,[25],28200 nM
